The subject of this experiment is L1210 leukemia ip in BDF1 mice, survival T/C. Put plainly: NCI In Vivo Anticancer Drug Screen. Data for tumor model L1210 Leukemia (intraperitoneal) in B6D2F1 (BDF1) mice. The settings on record: endpoint: mean survival time, higher = longer survival. Put shortly: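 Ratio derived from survival: compound-dosed mice over vehicle-dosed mice, all bearing a transplantable tumor.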

Where [1] appears, read: dose: 50.0 mg/kg/injection, schedule: Q04DX003 (ip), vehicle: saline.
The mark [2] stands for this setting: dose: 100.0 mg/kg/injection, schedule: Q04DX003 (ip), vehicle: saline.
Setting [3] is: dose: 200.0 mg/kg/injection, schedule: Q04DX003 (ip), vehicle: saline.
Where [4] appears, read: dose: 2.2 mg/kg/injection, schedule: Q01DX Z (ip), vehicle: methylcellulose (MC).
Setting [5] is: dose: 100.0 mg/kg/injection, schedule: Q04DX002 (ip), vehicle: saline with Tween-80.
Where [6] appears, read: dose: 200.0 mg/kg/injection, schedule: Q04DX002 (ip), vehicle: saline with Tween-80.
The mark [7] stands for this setting: dose: 400.0 mg/kg/injection, schedule: Q04DX002 (ip), vehicle: saline with Tween-80.

Each structure is given as a SMILES string. “And” between values parts separate entries of the source, which are not always exact repeats. Identical values can stand only once. Inconclusive results and toxic doses are left out.

Take `CCN1CCC(CNc2cc(C)nc(/N=C(\N)Nc3ccc(Cl)c(Cl)c3)n2)C1` (stereo unspecified): the T/C is, setting by setting: (dose: 12.5 mg/kg/injection, schedule: Q04DX003 (ip), vehicle: Klucel (hydroxypropylcellulose) (HPC)) 98 % of control; (dose: 25.0 mg/kg/injection, schedule: Q04DX003 (ip), vehicle: Klucel (hydroxypropylcellulose) (HPC)) 102 % of control; (dose: 50.0 mg/kg/injection, schedule: Q04DX003 (ip), vehicle: Klucel (hydroxypropylcellulose) (HPC)) 107 % of control.

With `COc1cccc(N=Nc2c(N)nc(N)[nH]c2=O)c1`, the T/C (dose: 50.0 mg/kg/injection, schedule: Q01DX009 (ip), vehicle: saline) was 90 % of control; the T/C under setting [1] was 101 % of control; the T/C (dose: 100.0 mg/kg/injection, schedule: Q01DX001 (ip), vehicle: saline) was 104 % of control; the T/C (dose: 100.0 mg/kg/injection, schedule: Q01DX009 (ip), vehicle: saline) was 92 % of control; the T/C under setting [2] was 98 % of control; the T/C (dose: 200.0 mg/kg/injection, schedule: Q01DX001 (ip), vehicle: saline) was 107 % of control. For the same compound, the T/C reads like this: (dose: 200.0 mg/kg/injection, schedule: Q01DX009 (ip), vehicle: saline) 95 % of control; under setting [3], 102 % of control; (dose: 400.0 mg/kg/injection, schedule: Q01DX001 (ip), vehicle: saline) 104 % of control.

`O=C1C=CC(=O)N1CCCCCCCCCCN1C(=O)C=CC1=O`: the T/C (dose: 1.0 mg/kg/injection, schedule: Q01DX Z (ip), vehicle: methylcellulose (MC)) was 94 % of control; the T/C (dose: 1.4 mg/kg/injection, schedule: Q01DX Z (ip), vehicle: methylcellulose (MC)) is 96 % of control; the T/C under setting [4] is 90 % of control.

Regarding `Nc1ccn(C2OC(CO)C(O)C2O)c(=NCC(=O)O)n1` (stereo unspecified), the T/C (dose: 100.0 mg/kg/injection, schedule: Q01DX005 (ip), vehicle: saline) is 120 % of control and the T/C (dose: 200.0 mg/kg/injection, schedule: Q01DX005 (ip), vehicle: saline) is 122 % of control.

For `O=C(Nc1coc2ccc(Cl)cc12)C1CC1`, the T/C is, setting by setting: (dose: 100.0 mg/kg/injection, schedule: Q01DX009 (ip), vehicle: saline with Tween-80) 86 % of control; (dose: 200.0 mg/kg/injection, schedule: Q01DX009 (ip), vehicle: saline with Tween-80) 99 % of control.

For the compound `COc1ccccc1NC(=O)N(CCCl)N=O`, the T/C was 110 % of control (dose: 0.8 mg/kg/injection, schedule: Q01DX001 (ip), vehicle: carboxymethylcellulose (CMC)); 106 % of control (dose: 1.5 mg/kg/injection, schedule: Q01DX001 (ip), vehicle: carboxymethylcellulose (CMC)); 97 % of control (dose: 1.5 mg/kg/injection, schedule: Q01DX009 (ip), vehicle: carboxymethylcellulose (CMC)); 108 % of control (dose: 3.0 mg/kg/injection, schedule: Q01DX001 (ip), vehicle: carboxymethylcellulose (CMC)); 118 % of control and 124 % of control (dose: 3.5 mg/kg/injection, schedule: Q01DX009 (ip), vehicle: carboxymethylcellulose (CMC)); 165 % of control (dose: 5.3 mg/kg/injection, schedule: Q01DX009 (ip), vehicle: carboxymethylcellulose (CMC)). The T/C (dose: 6.0 mg/kg/injection, schedule: Q01DX001 (ip), vehicle: carboxymethylcellulose (CMC)) was 117 % of control; the T/C (dose: 8.0 mg/kg/injection, schedule: Q01DX009 (ip), vehicle: carboxymethylcellulose (CMC)) is 166 % of control and 236 % of control; the T/C (dose: 12.0 mg/kg/injection, schedule: Q01DX009 (ip), vehicle: carboxymethylcellulose (CMC)) is 214 % of control and 247 % of control; the T/C (dose: 18.0 mg/kg/injection, schedule: Q01DX009 (ip), vehicle: carboxymethylcellulose (CMC)) was 116 % of control and 123 % of control; the T/C (dose: 100.0 mg/kg/injection, schedule: Q01DX001 (ip), vehicle: carboxymethylcellulose (CMC)) is 100 % of control.

Consider `O=C(C1=CN(CC(O)c2ccccc2)CCC1)c1cc2ccccc2n1S(=O)(=O)c1ccccc1` (stereo unspecified), for which the T/C is 97 % of control under setting [5], 94 % of control under setting [6] and 94 % of control under setting [7].

With `CN(C)CCOC(=O)c1ccccc1CCl`, the T/C (dose: 10.0 mg/kg/injection, schedule: Q01DX009 (ip), vehicle: saline) is 101 % of control; the T/C (dose: 20.0 mg/kg/injection, schedule: Q01DX009 (ip), vehicle: saline) is 98 % of control; the T/C (dose: 40.0 mg/kg/injection, schedule: Q01DX009 (ip), vehicle: saline) is 98 % of control.

`CCCCSc1ccccn1`: the T/C under setting [1] was 114 % of control, the T/C under setting [2] was 98 % of control and the T/C under setting [3] is 90 % of control.

In the case of `O=C(CCCCC(=O)Nc1cc(C2=NCCN2)cc(C2N=CCN2)c1)Nc1cc(C2=NCCN2)cc(C2=NCCN2)c1` (stereo unspecified), the T/C is 96 % of control under setting [4]; 106 % of control (dose: 3.0 mg/kg/injection, schedule: Q01DX Z (ip), vehicle: methylcellulose (MC)); 120 % of control (dose: 5.0 mg/kg/injection, schedule: Q01DX Z (ip), vehicle: carboxymethylcellulose (CMC)); 101 % of control (dose: 5.0 mg/kg/injection, schedule: Q01DX Z (ip), vehicle: methylcellulose (MC)); 87 % of control (dose: 9.0 mg/kg/injection, schedule: Q01DX Z (ip), vehicle: methylcellulose (MC)); 100 % of control (dose: 10.0 mg/kg/injection, schedule: Q01DX Z (ip), vehicle: carboxymethylcellulose (CMC)). Besides, for the setting “dose: 15.0 mg/kg/injection, schedule: Q01DX Z (ip), vehicle: carboxymethylcellulose (CMC)”, the T/C is 94 % of control.

Take `CC(C)c1nc2c(n1Cc1ccccc1)C=C(C(=O)c1ccccc1)S(=O)(=O)C(C(=O)c1ccccc1)=C2`: the T/C reads like this: (dose: 25.0 mg/kg/injection, schedule: Q04DX003 (ip), vehicle: saline with Tween-80) 107 % of control and 86 % of control; (dose: 50.0 mg/kg/injection, schedule: Q01DX001 (ip), vehicle: saline with Tween-80) 93 % of control and 104 % of control; (dose: 50.0 mg/kg/injection, schedule: Q04DX002 (ip), vehicle: Klucel (hydroxypropylcellulose) (HPC)) 106 % of control; (dose: 50.0 mg/kg/injection, schedule: Q04DX002 (ip), vehicle: saline with Tween-80) 104 % of control and 105 % of control; (dose: 100.0 mg/kg/injection, schedule: Q01DX001 (ip), vehicle: saline with Tween-80) 93 % of control and 89 % of control; (dose: 100.0 mg/kg/injection, schedule: Q04DX002 (ip), vehicle: Klucel (hydroxypropylcellulose) (HPC)) 110 % of control. Also, the T/C is, setting by setting: (dose: 200.0 mg/kg/injection, schedule: Q01DX001 (ip), vehicle: saline with Tween-80) 100 % of control and 91 % of control; (dose: 200.0 mg/kg/injection, schedule: Q04DX002 (ip), vehicle: Klucel (hydroxypropylcellulose) (HPC)) 93 % of control and 103 % of control; (dose: 200.0 mg/kg/injection, schedule: Q04DX003 (ip), vehicle: saline with Tween-80) 96 % of control and 89 % of control; (dose: 400.0 mg/kg/injection, schedule: Q04DX002 (ip), vehicle: Klucel (hydroxypropylcellulose) (HPC)) 93 % of control; under setting [7], 93 % of control and 89 % of control.

`CC(=O)[O][Sn]([CH2]c1ccccc1)([CH2]c1ccccc1)[O]C(C)=O`: the T/C (dose: 100.0 mg/kg/injection, schedule: Q01DX009 (ip), vehicle: other) is 109 % of control; the T/C (dose: 100.0 mg/kg/injection, schedule: Q04DX003 (ip), vehicle: other) is 92 % of control; the T/C (dose: 200.0 mg/kg/injection, schedule: Q01DX009 (ip), vehicle: other) was 98 % of control; the T/C (dose: 200.0 mg/kg/injection, schedule: Q04DX003 (ip), vehicle: other) was 97 % of control; the T/C (dose: 400.0 mg/kg/injection, schedule: Q01DX009 (ip), vehicle: other) was 95 % of control; the T/C (dose: 400.0 mg/kg/injection, schedule: Q04DX003 (ip), vehicle: other) was 95 % of control.

Take `CCCOP(=O)(N1CC1(C)C)N1CC1(C)C` (stereo unspecified): the T/C is, setting by setting: (dose: 100.0 mg/kg/injection, schedule: Q04DX002 (ip), vehicle: saline) 201 % of control; (dose: 200.0 mg/kg/injection, schedule: Q04DX002 (ip), vehicle: saline) 155 % of control.

As for `O=C1/C(=C/c2ccco2)CCC/C1=C\c1ccco1`, the T/C was 95 % of control (dose: 100.0 mg/kg/injection, schedule: Q01DX001 (ip), vehicle: acetone); 92 % of control under setting [5]; 87 % of control (dose: 200.0 mg/kg/injection, schedule: Q01DX001 (ip), vehicle: acetone); 95 % of control under setting [6]; 97 % of control (dose: 400.0 mg/kg/injection, schedule: Q01DX001 (ip), vehicle: acetone); 98 % of control under setting [7].

Values taken from PubChem BioAssay AID248 (DTP/NCI, 2004).
